Values of other authors, collected in US20250312278A1, “BRIVARACETAM PHARMACEUTICAL COMPOSITION, PREPARATION METHOD THEREFOR AND USE THEREOF” (SHANGHAI BOCIMED PHARMACEUTICAL CO., LTD., priority 2020, published 2025).
≈ marks a conversion by molar mass, not a printed value. Like-named read-outs stand apart in the source and are kept apart here.

Legend:
[1] = in vivo

Question: Which solubility (buffer solution with a pH of 4.5) does the source give for `CCC[C@@H]1CC(=O)N(C(CC)C(N)=O)C1` (stereo partly drawn) [Brivaracetam, (2S)-2-[(4R)-2-oxo-4-propyltetrahydron-1H-pyrro-1-yl] butanamide] here?
Answer: 850 mg/mL (≈ 4000 mM)

Question: What about the solubility (buffer solution with a pH of 7.4) of the same molecule?
Answer: 840 mg/mL (≈ 3960 mM)

Question: And the solubility (hydrochloric acid solution with a pH of 1.2)?
Answer: 850 mg/mL (≈ 4000 mM)

Question: What about the solubility (water) of the same molecule?
Answer: 700 mg/mL (≈ 3300 mM)

Question: What about the terminal half-life period [1] of the same molecule?
Answer: 9 h
